Residue numbers refer to the chain shown, from its start.
Tests used:
Gal4-hRORγ = target: T1, Gal4-hRORγ (Homo sapiens, UniProt P51449); assay: Gal4-RORγ mammalian one-hybrid luciferase assay; assay type: cell-based; conditions: HEK293 cells
T1 construct: Encodes for a hRORγ-LBD:Gal4-DBD fusion protein; expressed in transfected cells; host or cells: HEK293
T1 sequence (P51449 269-508 limits assumed): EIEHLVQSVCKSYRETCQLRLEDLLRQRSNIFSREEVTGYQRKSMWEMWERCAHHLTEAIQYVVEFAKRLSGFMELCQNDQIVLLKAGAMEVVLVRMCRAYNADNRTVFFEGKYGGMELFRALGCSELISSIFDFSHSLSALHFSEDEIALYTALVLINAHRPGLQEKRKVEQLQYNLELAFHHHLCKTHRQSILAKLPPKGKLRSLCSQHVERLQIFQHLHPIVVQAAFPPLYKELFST
Procedure: (§1) For luciferase assays, 8 × 10^6 HEK293 cells were seeded on 150 mm cell culture dishes and incubated for 5 h. Afterward, cells were transfected with the calcium phosphate coprecipitation method using 5 μg of the nuclear receptor (Gal4-hRORγ or full-length human RORγ), 5 μg of a luciferase reporter (pTK-MH100 × 4-LUC for Gal4-hRORγ experiments or RORE-LUC for full-length human RORγ experiments) and 3 μg eGFP-N1 (for assessing transfection efficiency) plasmid DNA and incubated overnight. […] The medium was changed the following day, and cells were further incubated for another four to 5 h before trypsin/EDTA was added to detach them from the dishes. […] RLUs were normalized to relative fluorescence units (RFU) to account for differences in cell number and transfection efficiency and then normalized to the vehicle control. Results are expressed as fold activation relative to the vehicle control.
(§2) Concentration–response data were analyzed in GraphPad Prism version 10 by three-parameter logistic nonlinear regression, with the Hill slope constrained to a theoretical value of −1.0. An IC50 value was determined only for compounds yielding a statistically reliable fit. […] In these cases, only the maximal inhibition achieved at the highest tested concentration (I max(%) at 5 μM) is reported, calculated as follows: Imax(%)=(1−Bottom/Top)×100 (“top” = baseline activity measured at the lowest concentration, “bottom” = residual activity observed at the highest concentration, corresponding to the maximal inhibitory effect).

[1] = tested on: Il17a and Il17f (Il17a/f); assay: RT-qPCR of Il17a and Il17f in EL-4-mRORγt cells; assay type: cell-based, murine; conditions: indicated concentrations, 20–24 h, then 4.5-h PMA and ionomycin
Procedure: (§3) For RT-qPCR assays, 5 × 10^5 EL-4-mRORγt cells were seeded in 500 μL complete DMEM per well of a 24-well plate and treated with the vehicle control, the positive control, or the compounds of interest. After incubation for 20–24 h, cells were stimulated with Cell Activation Cocktail (PMA: 40.5 μM, ionomycin: 669.3 μM; 500X) for 4.5 h. Afterward, total RNA was isolated using the innuPREP RNA Mini Kit 2.0 according to the manufacturer’s instructions. According to the manufacturer’s instructions, 1 μg RNA was reverse-transcribed into cDNA using the High-Capacity cDNA Reverse Transcription Kit. RT-qPCR was performed using the Luna Universal qPCR Master Mix on a LightCycler 480 (Roche Diagnostics, Rotkreuz, Switzerland) according to the manufacturer’s instructions. […] Livak’s 2−ΔΔCt method was employed to determine the expression levels of RORγ target genes. This involved normalizing the target gene expression to the expression levels of the control gene 18s, followed by further normalization to the vehicle control.

Gal4-RORγ H479L = target: T2, Gal4-RORγ H479L (Homo sapiens, UniProt P51449, H479L); assay: Gal4-RORγ H479L mutant luciferase assay; conditions: 5 μM
T2 sequence (P51449 269-508 H479L limits assumed): T1 sequence (P51449 269-508 limits assumed) with H211L
Procedure: Gal4-hRORγ H323A and H479L mutants were generated using the QuikChange Lightning Site-Directed Mutagenesis Kit according to the manufacturer’s instructions. Briefly, 10 ng template DNA (Gal4-hRORγ) was PCR-amplified with the respective mutagenic forward and reverse primers listed in Table S3, which were designed using the QuikChange Primer Design tool (https://www.agilent.com/store/primerDesignProgram.jsp). […] Two μL of the PCR product were then transformed into XL1-Blue competent E. coli according to a protocol provided by NEB. […] After centrifuging the main culture at 5691g for 10 min, the supernatant was decanted, and plasmid preparation was performed using the PureLink HiPure Plasmid Midiprep Kit according to the manufacturer’s instructions. DNA yields and purities were checked using a NanoDrop 2000c (Thermo Fisher Scientific, Waltham, MA, USA).

HEK293 cells = assay: Resazurin conversion assay in HEK293 cells; assay type: cell-based, human; conditions: 5 μM, 18 h
Procedure: (§4) To check the metabolic activity of cells correlating with cell viability, cells were treated with the vehicle control (0.1% DMSO), digitonin as the positive control for cytotoxicity at 20 μg/mL (HEK293 cells) or 50 μg/mL (EL-4-mRORγt cells), or the compounds of interest at 5 μM for 18 h (HEK293 cells) or 20–24 h (EL-4-mRORγt cells). The next day, the medium was carefully removed and replaced with stripped DMEM without phenol red, containing 10 μg/mL resazurin sodium salt. Cells were incubated for 5 h before RFU values were measured at λem = 590 nm using a spectrophotometer. Cell viability was calculated as follows: Cell viability(%)=100×RFU value after compound treatment/RFU value after vehicle control treatment Cytotoxicity was defined as cell viability under 70% according to the ISO 10993–5 guidelines. Cell viability <90% is explicitly stated in the respective figure.

EL-4-mRORγt cells = assay: Resazurin conversion assay in EL-4-mRORγt cells; assay type: cell-based, murine; conditions: 5 μM, 20-24 h
Procedure: as §4

[2] = tested on: interleukin 23 receptor (Il23r); assay: RT-qPCR of Il23r in EL-4-mRORγt cells; assay type: cell-based, murine; conditions: indicated concentrations, 20–24 h, then 4.5-h PMA and ionomycin
Procedure: as §3

full-length human RORγ = target: T3, full-length human RORγ (Homo sapiens, UniProt P51449); assay: Full-length RORγ luciferase assay (RORE-LUC reporter); assay type: cell-based; conditions: HEK293 cells
T3 construct: Encodes for the full-length human RORγ; expressed in transfected cells; host or cells: HEK293
T3 sequence (P51449 1-518): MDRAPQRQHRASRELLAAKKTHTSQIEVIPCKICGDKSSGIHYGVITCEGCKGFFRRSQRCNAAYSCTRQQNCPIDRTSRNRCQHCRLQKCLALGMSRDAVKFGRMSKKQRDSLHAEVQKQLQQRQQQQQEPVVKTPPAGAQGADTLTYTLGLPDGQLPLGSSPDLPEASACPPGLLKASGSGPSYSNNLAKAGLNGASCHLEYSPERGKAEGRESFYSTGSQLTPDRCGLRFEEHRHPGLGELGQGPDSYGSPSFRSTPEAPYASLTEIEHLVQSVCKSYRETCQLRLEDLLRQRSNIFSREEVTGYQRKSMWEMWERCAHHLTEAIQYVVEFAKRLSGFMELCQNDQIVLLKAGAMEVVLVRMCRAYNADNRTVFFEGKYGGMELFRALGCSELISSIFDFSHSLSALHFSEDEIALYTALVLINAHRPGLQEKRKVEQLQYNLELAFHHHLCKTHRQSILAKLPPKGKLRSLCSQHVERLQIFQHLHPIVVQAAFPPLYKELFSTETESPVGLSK
Procedure: as §1, §2

C=C(C)[C@@H]1CC[C@]2(C(=O)O)CC[C@]3(C)[C@H](CC[C@@H]4[C@@]5(C)C/C(=C/c6ccco6)C(=O)C(C)(C)[C@@H]5CC[C@]43C)[C@@H]12 [Compound 15, (2Z)-2-(2-furanylmethylene)-3-oxolup-20(29)-en-28-oic acid]
Activity in Gal4-RORγ luciferase assay (initial screen) (Gal4-hRORγ; 3 μM): new inverse agonist of RORγ | Imax(%) at 5 μM, Gal4-RORγ luciferase assay (Gal4-hRORγ; 5 μM): 76% | IC50 (Gal4-hRORγ; 18 h treatment, up to 5 μM): 400 nM | Il17a expression [1]: failed to affect Il17a expression levels | Il17f expression [1]: slight yet concentration-dependent decrease | Activity on Gal4-RORγ H479L vs WT (Gal4-RORγ H479L): loss of activity | Cytotoxic effects, resazurin conversion assay (HEK293 cells): no cytotoxic effects | Cytotoxic effects, resazurin conversion assay (EL-4-mRORγt cells): no cytotoxic effects | Il23r expression [2]: concentration-dependent down-regulation | Imax(%) at 5 μM, full-length RORγ luciferase assay (full-length human RORγ; 5 μM): 69% | IC50 (full-length human RORγ; 18 h treatment, up to 5 μM, read-out: IC50, full-length RORγ luciferase assay): 900 nM

— PMC12379159 (Journal of Natural Products, 2025)
